Tests used:
[1] = test system: glioblastoma brain cancer cell line LN-229; experiment: Cytotoxicity assay (CCK8 viability), LN-229; type: cell-based; conditions: Homo sapiens, LN-229 cells, 18 hours drug incubation, 1% FBS media
Experimental: (§1) Cytoxocity assay: Cells were seeded on a 96 well polystyrene plate in full serum media at a density of 75,000 cells per milliliter, 100 μL per well. Plates were incubated at 37° C. and 5% CO2 for 24 hours to allow cell attachment. Drug solutions were prepared in DMSO at 100× concentration and mixed 1:100 in 1% FBS media to yield the desired concentration. Drug-media mixtures were vortexed immediately prior to administration to cells. Full serum media was removed and replaced with drug-media mixtures and incubated for 18 hours. 10 μL of Cell Counting Kit 8 (CCK8, Dojindo# CK04-11) was added to each well to colormetrically assess viability. After 2-4 hours of incubation with the CCK8 dye, absorbance was read at 450 nm by a BioTek Synergy 2 plate reader.
(§2) The cytotoxicity of selected compounds against the glioblastoma brain cancer cell line LN-229 is depicted in Table 1.

[2] = test system: glioblastoma brain cancer cell line DBTRG05MG; experiment: Cytotoxicity assay (CCK8 viability), DBTRG05MG; type: cell-based; conditions: Homo sapiens, DBTRG-05MG, DBTRG05MG cells, 18 hours drug incubation, 1% FBS media
Experimental: as §1, §2

| Compound | EC50 [1] [µM] | EC50 [2] [µM] |
| --- | --- | --- |
| Cc1cccc(-c2c(O)cc(C(C)(C)C3CCCCC3)nc2O)c1 [Compound 8f, 6-(2-Cyclohexylpropan-2-yl)-3-m-tolylpyridine-2,4-diol] | 71.1 | – |
| CC(C)(c1ccccc1)c1cc(O)c(-c2cc(Cl)cc(Cl)c2)c(O)n1 [Compound 8c, 3-(3,5-Dichlorophenyl)-6-(2-phenylpropan-2-yl)pyridine-2,4-diol] | 29.2 | 33.6 |
| CCCCCCC(C)(C)c1cc(O)c(-c2ccccc2)c(O)n1 [Compound 8j, 6-(2-Methyloctan-2-yl)-3-phenylpyridine-2,4-diol] | 52.6 | 55.7 |
| CCCCCCC(C)(C)c1cc(O)c(-c2cc(Cl)cc(Cl)c2)c(O)n1 [Compound 8e, 3-(3,5-dichlorophenyl)-6-(2-methyloctan-2-yl)pyridine-2,4-diol] | 1.6 | 4.1 |
| CCCCCCC(C)(C)c1nc(O)c(-c2cccc(C)c2)c(O)n1 [Compound 8h, 2-(2-Methyloctan-2-yl)-5-m-tolylpyrimidine-4,6-diol] | 24.6 | 29.2 |
| CCCCCCC(C)(C)c1cc(O)c(-c2cccc(OC)c2)c(O)n1 [Compound 8m, 3-(3-Methoxyphenyl)-6-(2-methyloctan-2-yl)pyridine-2,4-diol] | 41.7 | 56 |
| CC(C)(c1cc(O)c(-c2cc(Cl)cc(Cl)c2)c(O)n1)C1CCCCC1 [Compound 8b, 6-(2-Cyclohexylpropan-2-yl)-3-(3,5-dichlorophenyl)pyridine-2,4-diol] | 5.9 | 9.8 |
| CCCCCCC(C)(C)c1cc(O)c(Cc2ccccc2)c(O)n1 [Compound 8n, 3-Benzyl-6-(2-methyloctan-2-yl)pyridine-2,4-diol] | 13.1 | 25.2 |
